# Measurements published in patent US20230365554A1, “SUBSTITUTED PYRROLO-PYRIDINONE DERIVATIVES AND THERAPEUTIC USES THEREOF” (The Broad Institute, Inc., priority 2020, published 2023).
# Experiments:
# human CSNK1A1 = human CSNK1A1 (Homo sapiens (Human), UniProt P48729); test: CSNK1A1 Assay 2 (ADP-Glo, 1 μM ATP); assay type: biochemical; settings: median, Table 2, read-out: CSNK1A1 Assay 2 IC50 [mol/l] (median)
# Description: CSNK1A1-inhibitory activity of compounds of the present invention in presence of 1 μM adenosine-tri-phosphate (ATP) was quantified employing the CSNK1A1 assay as described in the following paragraphs. In essence, the enzyme activity is measured by quantification of the adenosine-di-phosphate (ADP), which is generated as a co-product of the enzyme reaction, via the “ADP-Glo™ Kinase Assay” kit from the company Promega. This detection system works as follows: In a first step the ATP not consumed in the kinase reaction is quantitatively converted to cAMP employing an adenylate cyclase (“ADP-Glo-reagent”), then the adenylate cyclase is stopped and the ADP generated in the kinase reaction converted to ATP which generates in a luciferase-based reaction a glow-luminescence signal (“Kinase Detection Reagent”).
# (§1) Recombinant fusion protein of N-terminal Glutathion-S-Transferase (GST) and full-length human CSNK1A1, expressed by baculovirus infected insect cells and purified via Glutathion affinity chromatography, was purchased from Life Technologies (product no. PV4174) and used as enzyme. As substrate for the kinase reaction the biotinylated peptide biotin-Ahx-KRRRAL-pS-VASLPGL (C-terminus in amide form) was used which can be purchased e.g. from the company Biosyntan (Berlin-Buch, Germany).
# For the assay 50 nl of a 100 fold concentrated solution of the test compound in DMSO was pipetted into a white 1536-well microtiter plate (Greiner Bio-One, Frickenhausen, Germany), 2 μL of a solution of CSNK1A1 in aqueous assay buffer [50 mM HEPES pH 7.5, 10% (v/v) glycerol, 10 mM MgCl2, 50 mM NaCl, 1 mM dithiothreitol, 0.01% (w/v) bovine serum albumin, 0.01% (v/v) Triton X-100] were added and the mixture was incubated for 15 min at 22° C. to allow pre-binding of the test compounds to the enzyme before the start of the kinase reaction. Then the kinase reaction was started by the addition of 3 μL of a solution of ATP (1.67 μM=>final conc. in the 5 μL assay volume is 1 μM) and peptide substrate (50 μM=>final conc. in the 5 μL assay volume is 30 μM) in assay buffer and the resulting mixture was incubated for a reaction time of 30 min at 22° C. The concentration of CSNK1A1 was adjusted depending of the activity of the enzyme lot and was chosen appropriate to have the assay in the linear range, a typical concentrations are about 0.0375 ng/μL. The reaction was stopped by the addition of 2.5 μL of “ADP-Glo-reagent” (1:1.5 fold diluted with water) and the resulting mixture was incubated at 22° C. for 1 h to convert the ATP not consumed in the kinase reaction completely […]. Subsequently 2.5 μL of the “kinase detection reagent” (1.2 fold more concentrated than recommended by the producer) were added, the resulting mixture was incubated at 22° C. for 1 h and then the luminescence measured with a suitable measurement instrument (e.g. Viewlux™ from Perkin-Elmer). The amount of emitted light was taken as a measure for the amount of ADP generated and thereby for the activity of the CSNK1A1.
# (§2) The data were normalised (enzyme reaction without inhibitor=0% inhibition, all other assay components but no enzyme=100% inhibition).
# human CSNK1D = human CSNK1D (Homo sapiens (Human), UniProt P48730); test: CSNK1D assay (ADP-Glo, 1 μM ATP); assay type: biochemical; settings: median, Table 2, read-out: CSNK1D IC50 [mol/l] (median)
# Description: CSNK1D-inhibitory activity of compounds of the present invention in presence of 1 μM adenosine-tri-phosphate (ATP) was quantified employing the CSNK1D assay as described in the following paragraphs. In essence, the enzyme activity is measured by quantification of the adenosine-di-phosphate (ADP), which is generated as a co-product of the enzyme reaction, via the “ADP-Glo™ Kinase Assay” kit from the company Promega. This detection system works as follows: In a first step the ATP not consumed in the kinase reaction is quantitatively converted to cAMP employing an adenylate cyclase (“ADP-Glo-reagent”), then the adenylate cyclase is stopped and the ADP generated in the kinase reaction converted to ATP which generates in a luciferase-based reaction a glow-luminescence signal (“Kinase Detection Reagent”).
# as §1, with “CSNK1D,” for “CSNK1A1,”, “PV3665)” for “PV4174)”, “Btn-Ahx-SGSEGDSESGEEEG” for “biotin-Ahx-KRRRAL-pS-VASLPGL”
# For the assay 50 nl of a 100 fold concentrated solution of the test compound in DMSO was pipetted into a white 1536-well microtiter plate (Greiner Bio-One, Frickenhausen, Germany), 2 μL of a solution of CSNK1D in aqueous assay buffer [50 mM HEPES pH 7.5, 10% (v/v) glycerol, 10 mM MgCl2, 50 mM NaCl, 1 mM dithiothreitol, 0.01% (w/v) bovine serum albumin, 0.01% (v/v) Triton X-100] were added and the mixture was incubated for 15 min at 22° C. to allow pre-binding of the test compounds to the enzyme before the start of the kinase reaction. Then the kinase reaction was started by the addition of 3 μL of a solution of ATP (1.67 μM=>final conc. in the 5 μL assay volume is 1 μM) and peptide substrate (50 μM=>final conc. in the 5 μL assay volume is 30 μM) in assay buffer and the resulting mixture was incubated for a reaction time of 30 min at 22° C. The concentration of CSNK1D was adjusted depending of the activity of the enzyme lot and was chosen appropriate to have the assay in the linear range, a typical concentration is about 0.5 ng/μL. The reaction was stopped by the addition of 2.5 μL of “ADP-Glo-reagent” (1:1.5 fold diluted with water) and the resulting mixture was incubated at 22° C. for 1 h to convert the ATP not consumed in the kinase reaction completely […]. Subsequently 2.5 μL of the “kinase detection reagent” (1.2 fold more concentrated than recommended by the producer) were added, the resulting mixture was incubated at 22° C. for 1 h and then the luminescence measured with a suitable measurement instrument (e.g. Viewlux™ from Perkin-Elmer). The amount of emitted light was taken as a measure for the amount of ADP generated and thereby for the activity of the CSNK1D.
# as §2
# human CSNK1A1, sequence (P48729 whole entry): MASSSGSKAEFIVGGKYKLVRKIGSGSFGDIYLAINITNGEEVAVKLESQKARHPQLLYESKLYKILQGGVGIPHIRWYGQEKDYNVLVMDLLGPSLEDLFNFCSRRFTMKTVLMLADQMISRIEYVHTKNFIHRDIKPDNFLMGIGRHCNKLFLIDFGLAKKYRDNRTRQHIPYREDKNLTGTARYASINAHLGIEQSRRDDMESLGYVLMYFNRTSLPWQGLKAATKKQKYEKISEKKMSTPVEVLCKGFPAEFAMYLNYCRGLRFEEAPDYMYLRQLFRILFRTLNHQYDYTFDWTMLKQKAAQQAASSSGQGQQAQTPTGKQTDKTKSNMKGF
# human CSNK1D, sequence (P48730 whole entry): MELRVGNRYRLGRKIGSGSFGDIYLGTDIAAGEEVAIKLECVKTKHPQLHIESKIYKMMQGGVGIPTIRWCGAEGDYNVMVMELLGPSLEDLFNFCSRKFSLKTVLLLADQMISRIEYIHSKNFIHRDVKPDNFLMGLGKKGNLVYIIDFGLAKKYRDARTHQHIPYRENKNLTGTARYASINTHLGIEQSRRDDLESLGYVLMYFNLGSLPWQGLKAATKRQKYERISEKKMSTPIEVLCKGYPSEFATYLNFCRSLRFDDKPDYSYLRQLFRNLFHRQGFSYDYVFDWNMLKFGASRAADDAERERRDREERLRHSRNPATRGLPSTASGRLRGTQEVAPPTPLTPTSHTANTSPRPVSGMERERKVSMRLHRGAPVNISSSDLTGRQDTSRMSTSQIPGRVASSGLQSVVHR
compound,measurement,setting,value
"Cn1cc(CC(F)(F)F)c2[nH]c(-c3ccnc(NC(=O)C(CC(F)F)c4ccc(F)cc4)c3)c(Nc3ccccc3)c2c1=O (racemic) [Example 35, N-{4-[3-anilino-5-methyl-4-oxo-7-(2,2,2-trifluoroethyl)-4,5-dihydro-1H-pyrrolo[3,2-c]pyridin-2-yl]pyridin-2-yl}-4,4-difluoro-2-(4-fluorophenyl)butanamide]",IC50,human CSNK1A1,8 nM
same,IC50,human CSNK1D,5.9 nM
